What was measured:
[1] = tested on: corn; test: Test C postemergence; assay type: in vivo, Zea mays; conditions: Zea mays, post-emergence, 240 h, 10 days
In short: (§1)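 Seeds sown in loam soil–sand blend received a directed preemergence soil spray of test chemical in non-phytotoxic solvent with surfactant; postemergence plants (2–10 cm, one- to two-leaf stage) were sprayed with the same formulation. Greenhouse-held 10 days, then visually rated for injury versus untreated controls, 0 (no effect) to 100 (complete control).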

[2] = tested on: kochia; test: Test C preemergence; assay type: in vivo, Bassia scoparia; conditions: 0 to 100 scale (0 no effect, 100 complete control)
In short: as §1

[3] = tested on: ducksalad; test: Test D flooded paddy test; assay type: in vivo, Heteranthera limosa; conditions: 250 g ai/ha, applied to paddy water, visual rating after 13 to 14 days, scale 0 to 100 (0 no effect, 100 complete control)
In short: (§2)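 Plants at the 2-leaf stage were grown in pots flooded to 3 cm, and compound was applied directly into the paddy water, with depth kept throughout. After 13–14 days in a greenhouse, injury was rated visually against untreated controls on a 0–100 scale (100 = complete control); a dash means not tested.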

[4] = tested on: ragweed; test: Test C preemergence; assay type: in vivo, Ambrosia artemisiifolia; conditions: 0 to 100 scale (0 no effect, 100 complete control)
In short: as §1

[5] = tested on: pigweed, palmer; test: Test C preemergence; assay type: in vivo, Amaranthus palmeri; conditions: 0 to 100 scale (0 no effect, 100 complete control)
In short: as §1

[6] = tested on: green foxtail; test: Test C postemergence; assay type: in vivo, Setaria viridis; conditions: 10 days
In short: as §1

[7] = tested on: blackgrass; test: Test C preemergence; assay type: in vivo, Alopecurus myosuroides; conditions: 0 to 100 scale (0 no effect, 100 complete control)
In short: as §1

[8] = tested on: kochia; test: Test C postemergence; assay type: in vivo, Bassia scoparia; conditions: 10 days
In short: as §1

[9] = tested on: sedge, umbrella; test: Test D flooded paddy test; assay type: in vivo, Cyperus difformis; conditions: 250 g ai/ha, applied to paddy water, visual rating after 13 to 14 days, scale 0 to 100 (0 no effect, 100 complete control)
In short: as §2

[10] = tested on: ragweed; test: Test C postemergence; assay type: in vivo, Ambrosia artemisiifolia; conditions: 10 days
In short: as §1

[11] = tested on: wheat; test: Test C postemergence; assay type: in vivo, Triticum aestivum; conditions: 10 days
In short: as §1

[12] = tested on: horseweed; test: Test C postemergence; assay type: in vivo, Erigeron canadensis; conditions: 10 days
In short: as §1

[13] = tested on: ryegrass, Italian; test: Test C preemergence; assay type: in vivo, Lolium multiflorum; conditions: 0 to 100 scale (0 no effect, 100 complete control)
In short: as §1

[14] = tested on: barnyardgrass; test: Test C postemergence; assay type: in vivo, Echinochloa crusgalli; conditions: 10 days
In short: as §1

[15] = tested on: soybean; test: Test C preemergence; assay type: in vivo, Glycine max; conditions: 0 to 100 scale (0 no effect, 100 complete control)
In short: as §1

[16] = tested on: rice; test: Test D flooded paddy test; assay type: in vivo, Oryza sativa; conditions: 250 g ai/ha, applied to paddy water, visual rating after 13 to 14 days, scale 0 to 100 (0 no effect, 100 complete control)
In short: as §2

[17] = tested on: barnyardgrass; test: Test C preemergence; assay type: in vivo, Echinochloa crusgalli; conditions: 0 to 100 scale (0 no effect, 100 complete control)
In short: as §1

[18] = tested on: pigweed, palmer; test: Test C postemergence; assay type: in vivo, Amaranthus palmeri; conditions: 10 days
In short: as §1

[19] = tested on: wheat; test: Test C preemergence; assay type: in vivo, Triticum aestivum; conditions: 0 to 100 scale (0 no effect, 100 complete control)
In short: as §1

[20] = tested on: oat, wild; test: Test C preemergence; assay type: in vivo, Avena fatua; conditions: 0 to 100 scale (0 no effect, 100 complete control)
In short: as §1

[21] = tested on: ryegrass, Italian; test: Test C postemergence; assay type: in vivo, Lolium multiflorum; conditions: 10 days
In short: as §1

[22] = tested on: blackgrass; test: Test C postemergence; assay type: in vivo, Alopecurus myosuroides; conditions: Alopecurus myosuroides, post-emergence, 240 h, 10 days, read-out: Plant response rating, Blackgrass
In short: as §1

[23] = tested on: green foxtail; test: Test C preemergence; assay type: in vivo, Setaria viridis; conditions: 0 to 100 scale (0 no effect, 100 complete control)
In short: as §1

[24] = tested on: oat, wild; test: Test C postemergence; assay type: in vivo, Avena fatua; conditions: 10 days
In short: as §1

[25] = tested on: corn; test: Test C preemergence; assay type: in vivo, Zea mays; conditions: 0 to 100 scale (0 no effect, 100 complete control)
In short: as §1

[26] = tested on: barnyardgrass; test: Test D flooded paddy test; assay type: in vivo, Echinochloa crus-galli; conditions: 250 g ai/ha, applied to paddy water, visual rating after 13 to 14 days, scale 0 to 100 (0 no effect, 100 complete control)
In short: as §2

[27] = tested on: soybean; test: Test C postemergence; assay type: in vivo, Glycine max; conditions: 10 days
In short: as §1

[28] = 125 g ai/ha, postemergence, 0 to 100 scale (0 no effect, 100 complete control)
[29] = Postemergence, 500 g ai/ha, visual 0 to 100 scale (0 no effect, 100 complete control)
[30] = Preemergence, 500 g ai/ha, visual rating after 10 days
[31] = Test C, preemergence, 125 g ai/ha
[32] = 125 g ai/ha, postemergence, 0 to 100 scale, 0 no effect, 100 complete control

## CC(C)c1ncn(-c2cc3c(c(C(=O)N4C[C@H](C)Oc5c(Cl)cccc54)c2)OCCO3)n1 [Compound 217, [(2S)-8-chloro-2-methyl-2,3-dihydro-1,4-benzoxazin-4-yl]-[7-(3-isopropyl-1,2,4-triazol-1-yl)-2,3-dihydro-1,4-benzodioxin-5-yl]methanone]
[1]; [28]
  Corn plant response rating (crop injury, 0 = no effect, 100 = complete kill) at 125 g/ha: 70%
[1]; [29]
  Corn plant response rating (crop injury, 0 = no effect, 100 = complete kill) at 500 g/ha: 70%
[2]; [30]
  Plant response rating, Kochia: 100
[2]; [31]
  Kochia plant response rating: 80
[3]
  Plant response rating, Ducksalad (Flood): 85
[4]; [30]
  Plant response rating, Ragweed: 100
[4]; [31]
  Ragweed plant response rating: 70
[5]; [30]
  Plant response rating, Pigweed, Palmer: 100
[5]; [31]
  Pigweed, Palmer plant response rating: 100
[6]; [32]
  Plant response rating, Foxtail, Green: 90
[6]; [29]
  Plant response rating, Foxtail, Green: 90
[7]; [30]
  Plant response rating, Blackgrass: 90
[7]; [31]
  Blackgrass plant response rating: 60
[8]; [32]
  Plant response rating, Kochia: 80
[8]; [29]
  Plant response rating, Kochia: 90
[9]
  Plant response rating, Sedge, Umbrella (Flood): 98
[10]; [32]
  Plant response rating, Ragweed: 90
[10]; [29]
  Plant response rating, Ragweed: 100
[11]; [32]
  Plant response rating, Wheat: 50
[11]; [29]
  Plant response rating, Wheat: 50
[12]; [32]
  Plant response rating, Horseweed: 80
[12]; [29]
  Plant response rating, Horseweed: 100
[13]; [30]
  Plant response rating, Ryegrass, Italian: 100
[13]; [31]
  Ryegrass, Italian plant response rating: 90
[14]; [32]
  Plant response rating, Barnyardgrass: 40
[14]; [29]
  Plant response rating, Barnyardgrass: 80
[15]; [30]
  Plant response rating, Soybean: 100
[15]; [31]
  Soybean plant response rating: 70
[16]
  Plant response rating, Rice (Flood): 20
[17]; [30]
  Plant response rating, Barnyardgrass: 100
[17]; [31]
  Barnyardgrass plant response rating: 90
[18]; [32]
  Plant response rating, Pigweed, Palmer: 100
[18]; [29]
  Plant response rating, Pigweed, Palmer: 100
[19]; [30]
  Plant response rating, Wheat: 90
[19]; [31]
  Wheat plant response rating: 30
[20]; [30]
  Plant response rating, Oat, Wild: 90
[20]; [31]
  Oat, Wild plant response rating: 90
[21]; [32]
  Plant response rating, Ryegrass, Italian: 70
[21]; [29]
  Plant response rating, Ryegrass, Italian: 90
[22]; [28]
  pest or weed control at 125 g/ha: 90%
[22]; [29]
  pest or weed control at 500 g/ha: 100%
[23]; [30]
  Plant response rating, Foxtail, Green: 100
[23]; [31]
  Foxtail, Green plant response rating: 100
[24]; [32]
  Plant response rating, Oat, Wild: 20
[24]; [29]
  Plant response rating, Oat, Wild: 40
[25]; [30]
  Plant response rating, Corn: 40
[25]; [31]
  Corn plant response rating: 30
[26]
  Plant response rating, Barnyardgrass (Flood): 50
[27]; [32]
  Plant response rating, Soybean: 100
[27]; [29]
  Plant response rating, Soybean: 100

— patent publication US20260262643A1, “HERBICIDAL BENZOXAZINES” (FMC CORPORATION, priority 2022, published 2026)
